Measured values reported in US20260167641A1, “CRYSTAL FORM OF IMIDAZOPYRAZINE DERIVATIVE, PREPARATION METHOD THEREFOR AND USE THEREOF” (TRANSTHERA SCIENCES (NANJING), INC., priority 2022, published 2026).
≈ marks a conversion by molar mass, not a printed value.

How the values were obtained:
[1] = Pharmacokinetic evaluation test in rats; assay type: in vivo, SD rats; conditions: p.o. 100 mg/kg; for Pharmacokinetic properties: SD rats; for AUCinf—obs / AUClast / Cmax / tz1/2 (terminal half-life) / Tmax: male SD rats, 100 mg/kg; for AUCinf—obs / AUClast / Cmax / tz1/2 (terminal half-life): mean, n = 3; for Tmax: n = 3, Tmax in median
Experimental: • Animals: male SD rats • Animal administration and sample collection: Crystal forms I, II, and III were each dissolved in a mixture of 20% PEG400+80% (20% Captisol in 0.5% MC) to prepare administration formulation suspensions. The administration formulations were intragastrically administered to the SD rats at a dose of 100 mg/kg. Blood samples were collected at time points of 15 min, 30 min, 1 h, 2 h, 4 h, 6 h, 8 h, 24 h, 48 h, 72 h, and […] after administration.
One day before administration, the animals underwent jugular vein catheterization. After administration, about 300 μL of blood samples were collected via the jugular vein and then placed into anticoagulation tubes containing EDTA-K2. The blood samples were centrifuged at 4° C. and 8000 rpm for 10 min to yield plasma samples, which were prepared within 30 min after blood sample collection. The plasma samples were stored in a refrigerator at −80° C. before tests.
The samples to be tested were taken out from the refrigerator at −80° C., naturally thawed at room temperature, and then vortexed for 5 min. 20 μL of each of the 20-fold diluted plasma samples was precisely pipetted into a 1.5 mL centrifuge tube, and 300 μL of an internal standard working solution at a concentration of 10 ng/mL was added. The mixture was uniformly mixed, vortexed for 5 min, and then centrifuged at 12000 rpm for 5 mun.
50 μL of the supernatant was precisely pipetted into a 96-well plate to which water was added at 150 μL/well in advance, uniformly mixed by vortexing for 5 min, and analyzed by LC-MS/MS.
The sample to be tested was taken out from the refrigerator at −80° C., naturally thawed at room temperature, and then vortexed for 5 min. 2 μL of the plasma sample was precisely pipetted and then added, together with 28 μL of blank plasma, to a 1.5 mL centrifuge tube, and 450 μL of an internal standard working solution (a solution of tolbutamide in acetonitrile) at a concentration of 100 ng/mL was added. The mixture was uniformly mixed, vortexed for 5 min, and then centrifuged at 12000 rpm for 5 min. 50 μL of the supernatant was precisely pipetted into a 96-well plate to which water was added at 150 μL/well in advance, uniformly mixed by vortexing for 5 min, and analyzed by LC-MS/MS.
The test compound concentrations were output by Analyst 1.7.1 of AB Sciex. Parameters such as mean, standard deviation, and coefficient of variation were calculated by Microsoft Excel. PK parameters were calculated by Pharsight Phoenix 8.2 software NCA (Tmax was in median).

[2] = Solubility test in pH 4.5 acetate buffer solution; assay type: physicochemical; conditions: for Solubility: saturated solution, 37° C., 200 rpm, 24 h
Experimental: Appropriate amounts of crystal forms I, II, III, and the compound of formula (I) were weighed and placed into 15 mL centrifuge tubes separately. A pH 4.5 acetate buffer was added to each tube to prepare saturated solutions. The tubes were sealed and placed in a water bath thermostatic oscillator to shake at 37° C. and a rotation speed of 200 rpm for 24 h. After centrifugation, the supernatants were collected and diluted to the corresponding multiples. The concentrations were measured. The detection was conducted according to the 2020 edition of the Chinese Pharmacopoeia.

[3] = Stability evaluation under influencing factors; assay type: physicochemical; conditions: for Purity decrease: 30 days vs day 0
Experimental: Appropriate amounts of crystal forms I, II. III, and the compound of formula (I) were taken and exposed to conditions of 60° C., RH (relative humidity) 92.5%, RH (relative humidity) 75%, and light, respectively. The samples were collected on day 30, and the purity of the samples and changes in XRPD were examined according to the 2020 edition of the Chinese Pharmacopoeia.

| SMILES | Pharmacokinetic properties [1] | AUCinf—obs [1] | AUClast [1] | Cmax [1] | tz1/2 (terminal half-life) [1] | Tmax [1] | Solubility compared to the amorphous form [2] | Solubility [2] | Purity % ([3]; 0 day) | Crystal form identification (XRPD) ([3]; 60° C., 30 days) | Purity % ([3]; 60° C., 30 days) | Crystal form identification (XRPD) ([3]; Light exposure, 30 days) | Purity % ([3]; Light exposure, 30 days) | Crystal form identification (XRPD) ([3]; RH 75%, 30 days) | Purity % ([3]; RH 75%, 30 days) | Crystal form identification (XRPD) ([3]; RH 92.5%, 30 days) | Purity % ([3]; RH 92.5%, 30 days) | Purity decrease ([3]; light exposure) | other results |
| --- | --- | --- | --- | --- | --- | --- | --- | --- | --- | --- | --- | --- | --- | --- | --- | --- | --- | --- | --- |
| Nc1nccn2c(C34CCC(NC(=O)CN5CCOCC5)(CC3)C4)nc(-c3ccc(C(=O)Nc4cc(C(F)(F)F)ccn4)cc3)c12 (single isomer, unassigned) [Crystal form I, 4-(8-amino-3-(4-(2-morpholinoacetamido)bicyclo[2.2.1]heptan-1-yl)imidazo[1,5-a]pyrazin-1-yl)-N-(4-(trifluoromethyl)pyridin-2-yl)benzamide] | very good pharmacokinetic properties | 1218.508 µg·h/mL | 1208.628 µg·h/mL | 96.267 µg/mL | 10.4 h | 1.00 h | higher solubility | 273 µg/mL (≈ 430 µM) | 98.6% | Consistent with day 0 | 98.7% | Consistent with day 0 | 98.1% | Consistent with day 0 | 98.7% | Consistent with day 0 | 98.7% | 0.5% | Change of crystal form (XRPD pattern) ([3]; all influencing factor conditions, 30 days): no changes in the crystal forms occurred; Stability compared to the amorphous form ([3]; influencing factors, 30 days): higher stability |
| Nc1nccn2c(C34CCC(NC(=O)CN5CCOCC5)(CC3)C4)nc(-c3ccc(C(=O)Nc4cc(C(F)(F)F)ccn4)cc3)c12 (single isomer, unassigned) [Crystal form III, 4-(8-amino-3-(4-(2-morpholinoacetamido)bicyclo[2.2.1]heptan-1-yl)imidazo[1,5-a]pyrazin-1-yl)-N-(4-(trifluoromethyl)pyridin-2-yl)benzamide] | very good pharmacokinetic properties | 2488.128 µg·h/mL | 2482.493 µg·h/mL | 142.333 µg/mL | 9.39 h | 2.00 h | higher solubility | 98 µg/mL (≈ 154 µM) | 99.0% | Consistent with day 0 | 94.8% | Consistent with day 0 | 88.0% | Partially converted to amorphous | 98.7% | Partially converted to amorphous | 98.7% | 11% | Purity decrease ([3]; high temperature of 60° C.): 4.2% |
| Nc1nccn2c(C34CCC(NC(=O)CN5CCOCC5)(CC3)C4)nc(-c3ccc(C(=O)Nc4cc(C(F)(F)F)ccn4)cc3)c12 [Compound of formula (I), 4-(8-amino-3-(4-(2-morpholinoacetamido)bicyclo[2.2.1]heptan-1-yl)imidazo[1,5-a]pyrazin-1-yl)-N-(4-(trifluoromethyl)pyridin-2-yl)benzamide] |  |  |  |  |  |  |  | 65 µg/mL | 99.7% | Consistent with day 0 | 99.5% | Consistent with day 0 | 88.2% | Consistent with day 0 | 99.7% | Consistent with day 0 | 99.7% | 11.5% |  |
